Laboratory results published in patent publication US20160243136A1, “PHARMACEUTICAL FORMULATIONS CONTAINING MITOCHONDRIALLY TARGETED ANTIOXIDANTS” (Mitotech SA, priority 2013, published 2016).

Test system: rat model of APN
Assay: In vivo rat model of acute pyelonephritis (APN), bacteria introduced in the bladder
Settings: 7th day
Experimental: An in vivo experimental model of APN was used where bacteria are introduced in the bladder of rat (Gupta et al. (1995) J. Med. Microbiol. 43:33-36). Experiments were performed on outbred white female rats (180-200 g) fed ad libitum. Animal protocols were approved by the Institutional Review Boards. Rats were anesthetized with chloral hydrate (300 mg/kg, intraperitoneally(ip)). The animals were infected intraurethrally using a soft Intramedic non-radio-opaque polyethylene catheter (Clay Adams, USA). The inoculum (5 ml per kg, 1×10^8 CFU/ml of rat fecal bacterial composition) was injected slowly to avoid any leakage […]. Control animals were untreated. The therapeutic protocol of SkQR1 used to treat this pathology was as follows: […], with subsequent injections of the same amount of SkQR1 at 12, 24, 36 and 48 hrs; in total, each animal received 500 nmol SkQR1 per kg. […]
Kidney mitochondria were isolated by homogenization and differential centrifugation in a medium containing 250 mM sucrose, 20 mM HEPES-KOH, 1 mM EGTA and 0.1% BSA, pH7.4. Total mitochondrial protein was determined using a bicinchoninic acid protein assay kit (Sigma-Aldrich, USA). The mitochondria from cultured kidney cells were isolated by the same protocol.
The ROS-sensitive fluorescent probe 2,7-DCF-DA (Molecular Probes, USA) dissolved in DMEM/F12 without bicarbonate (final concentration 10 μM) was added to renal cells (500 μl per well of 24-well plate, 2 ml per dish) and incubated for 15 min at 37° C. followed by a wash with DMEM/F12 without bicarbonate. MDA was determined as in (Mihara and Uchiyama (1978) Anal. Biochem. 86:271-8). Fluorescent probe, DAF-2-DA (Calbiochem, San Diego, Calif., USA) was used for NO determination in living cells. The procedure was the same as for 2,7-DCF-DA. The nitrite/nitrate concentration (as products of NO oxidation) in culture media was determined using Nitrite/Nitrate Assay Kit (Sigma-Aldrich, USA). TNFα was determined using the kit Rat TNFα ELISA Ready-SET-Go (Ebioscience, USA).
The kidney was isolated immediately after sacrificing the animal and perfused with ice-cold PBS. It was then fixed in a 10% neutral buffered formalin solution, embedded in paraffin and used for histopathological examination. Five micrometer thick sections were cut, deparaffinized, hydrated, and stained with hematoxylin and eosin. The renal sections were examined in blinded fashion for inflammation and infiltration by leukocytes in the kidneys of all treated animals. A minimum of 10 fields for each kidney slide were examined and scored for pathologic severity.
The manifestation of inflammatory indicators (i.e., a number of infiltrated leukocytes in every layer and the presence of abscesses) under APN was evaluated using the following scale: 0, none; 1, 5-50 leukocytes in the view field; […]; 4, abscesses with pus-necrotic content. The distribution of inflammatory changes (i.e., comparative analysis of infiltration and abscesses) was evaluated by the following criteria: 0, none in any layer; 1, infiltration in the medullar layer; 2, infiltration reaching the cortex.
Kidney homogenates for MPO determination were centrifuged at 20000 g 15 min, the pellets were resuspended in 50 mM K-phosphate buffer containing 0.5% CTAB. Resulted samples were frozen and thawed three times and then centrifuged at 10600 g 10 min. Supernatants were analyzed for MPO activity in chromogenic reaction with o-phenylenediamine (OPD). 100 μl sample was mixed with 100 μl substrate buffer (25 mM Na-citrate, 50 mM Na-phosphate, 0.45 mg/ml OPD, 0.1% H2O2, pH 5.0) and was incubated 15 min at room temperature and then OD was detected at 492 nm.
Samples of kidney homogenates were loaded onto 15% Tris-glycine polyacrylamide gels (10-20 μg of total protein per lane). After electrophoresis, gels were blotted onto PVDF membranes (Amersham Pharmacia Biotech, UK). […]

CC1=C(C)C(=O)C(CCCCCCCCCC[P+](c2ccccc2)(c2ccccc2)c2ccccc2)=CC1=O [SkQ1, 10-(6-plastoquinonyl)decyl-triphenylphosphonium]
leukocyte concentration in blood (SkQ1 100 nmol/kg ip on 3rd day): significantly reduced | neutrophils concentration in blood (SkQ1 100 nmol/kg ip on 3rd day after induction, vs animals not receiving SkQ1): twice as low | MPO activity in renal tissue (inflammation of kidney tissue) (SkQ1 ip on third day after induction): significant suppression
